From article PMC10784468 (Nature Communications, 2024)
pIC50: −log10 of the molar value. Positions of bridges follow the written chain, without caps; N, C: chain ends. Residues, ends and D or L forms follow the SMILES beside them. *: point of attachment. X1 = O=C(O)c1ccc(-c2c3nc(c(-c4ccc(C(=O)O)cc4)c4ccc([nH]4)c(-c4ccc(C(=O)*)cc4)c4nc(c(-c5ccc(C(=O)O)cc5)c5ccc2[nH]5)C=C4)C=C3)cc1; X2 = O=C(O)C/C(=C/C(=O)*)C(=O)O

Experiments:
ζ-potential in PBS = assay type: physicochemical
Protocol: Supplementary Fig. 12. ζ-potential change of Gi-F-CAA (40 μM) in PBS (0.01 M, pH 7.4 or 6.5) (n=3
experimental repeats). Experiment was independently repeated three times with similar results. Values are
(1 picture or pasted object on this page, not shown here)
Supplementary Fig. 13. ζ-potential of NGi-F-CAA, Gi-F and Gi-F-SA (pH 7.4) (40 μM) in PBS (n=3

EJ xenograft tumor = assay: Penetration assay in tumor frozen sections (Cy labeled)
Protocol: Firstly, EJ xenograft mice were administrated with Cy labeled Gi-F (8 mg/kg in 100 μL PBS) and Cy labeled Gi-F-CAA (8 mg/kg in 100 μL PBS) by intravenous injection. Afterward, EJ tumor tissues were entirely resected and protected from light. Subsequently, the tumor tissues were fixed with optimum cutting temperature (OCT) compound for 12 h at −20 °C avoiding light. Finally, the fixed tumor tissues were cut into sections and immediately observed with UltraVIEW VoX.

EJ cells = assay: Cytotoxicity assay (CCK-8) on EJ cells; conditions: for pIC50: pH 7.4
Protocol: Initially, EJ cells were seeded into 96 well plates at a density of 5 × 10^3 per well and incubated in a CO2 incubator overnight at 37 °C. Subsequently, Gi-F (pH = 7.4), Gi-F-SA (pH = 7.4), NGi-F-CAA (pH = 7.4), NGi-F-CAA (pH = 6.5), Gi-F-CAA (pH = 7.4) and Gi-F-CAA (pH = 6.5) at different concentrations (1, 2, 4, 8, 16, 32, 64, 128 and 256 μM) was added to the cells and further incubated for 48 h. Finally, the cell viability rate was calculated by (Sample wells-Blank wells)/(Control wells-Blank wells) × 100%.

EJ xenograft tumors = assay: In vivo antitumor evaluation in EJ xenograft model (tumor volume, tumor weight, body weight); conditions: 8 mg/kg i.v.; for mean tumor volume at 18 days post injection: six injections at 2-days intervals, n = 6; for Tumor weight: six injections, 18 days
Protocol: Female BALB/c nude mice (~8 weeks, 18 g) were subcutaneously inoculated with 5 × 10^6 EJ cells resuspended in Matrigel. When the tumor size reached about 100 mm^3, EJ tumor-bearing mice were randomly divided into four groups and administrated with PBS, Gi-F (8 mg/kg in 100 μL PBS), Gi-F-SA (8 mg/kg in 100 μL PBS) and Gi-F-CAA (8 mg/kg in 100 μL PBS) by intravenous injection at 2-days intervals for six times. Individual tumor volume and bodyweight of mouse after different treatment was collected at 2-days intervals for analysis. Mice were killed at 18 days post treatment unless endpoints were exceeded. Moreover, tumors from all groups were harvested under euthanasia and weighed for analysis at the end of treatment.

EJ tumor tissues [1] = assay: Tumor GSH content detection; assay type: in vivo, BALB/c nude mice; conditions: for Relative content of GSH: tumor
Protocol: (§1) EJ tumor tissues were collected under euthanasia at the end of treatment and washed with PBS for 3 times. Afterwards, the tumor lysates were collected by centrifugation at 8000 rpm for 10 min at 4 °C after lysed with Frozen Type Tissuelyser. Finally, the GSH contents were measured with a GSH Assay Kit based on the manufacturer’s instructions.

EJ tumor tissues [2] = assay: Tumor MDA content detection; assay type: in vivo, BALB/c nude mice; conditions: for Relative content of MDA: tumor
Protocol: as §1, with “8000 g” for “8000 rpm”, “the MDA” for “the GSH”, “measured by thiobarbituric acid (TBA) reaction” for “measured”, “a Malondialdehyde (MDA)” for “a GSH”, “Kit (Solarbio Science & Technology Co., Ltd., China, BC0025)” for “Kit”

GPX4 = biological target: T1, GPX4 (Homo sapiens, UniProt P36969); assay: Tumor GPX4 activity detection; assay type: in vivo, BALB/c nude mice; parameters: from tissue; host or cells: EJ xenograft tumour tissue from BALB/c nude mice
T1 sequence (P36969 1-197): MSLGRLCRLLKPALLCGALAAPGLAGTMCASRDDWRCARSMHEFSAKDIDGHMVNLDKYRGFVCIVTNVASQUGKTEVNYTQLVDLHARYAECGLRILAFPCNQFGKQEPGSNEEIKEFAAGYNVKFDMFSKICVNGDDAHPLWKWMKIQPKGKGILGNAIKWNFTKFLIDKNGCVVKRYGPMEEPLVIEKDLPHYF
Protocol: as §1, with “5000” for “8000”, “by freeze-thaw treatment.” for “with Frozen Type Tissuelyser.”, “GPX4 activity” for “GSH contents”, “GPX” for “GSH”

[3] = EJ tumor tissues, 8 mg/kg i.v., versus PBS, Gi-F and Gi-F-SA
[4] = 40 μM in PBS, pH 7.4, mean of n = 3

CC(C)C[C@H](NC(=O)c1ccc(-c2c3nc(c(-c4ccc(C(=O)O)cc4)c4ccc([nH]4)c(-c4ccc(C(=O)O)cc4)c4nc(c(-c5ccc(C(=O)O)cc5)c5ccc2[nH]5)C=C4)C=C3)cc1)C(=O)N[C@@H](CCCCNC(=O)/C=C(/CC(=O)O)C(=O)O)C(=O)N[C@@H](CC(C)C)C(=O)N[C@@H](CCCCN)C(=O)N[C@@H](CC(C)C)C(=O)N[C@@H](CCCCNC(=O)/C=C(/CC(=O)O)C(=O)O)C(=O)NCC(=O)N[C@@H](C)C(=O)N[C@H]1CSSC[C@@H](C(=O)N2CCC[C@H]2C(=O)N[C@H](C(=O)O)C(C)C)NC(=O)[C@@H]2CCCN2C(=O)[C@H](Cc2ccc(O)cc2)NC(=O)[C@H](CC(C)C)NC(=O)[C@@H]2CCCN2C(=O)[C@H](CC(C)C)NC(=O)[C@H](Cc2c[nH]c3ccccc23)NC(=O)[C@H](CC(N)=O)NC1=O [Gi-F-CAA] (X1-LK(X2)LKLK(X2)GACNWLPLYPCPV-OH; disulfide 9-17; C-terminus assumed)
ζ-potential change after incubation at pH 6.5 (ζ-potential in PBS; 40 μM in PBS 0.01 M, pH 6.5): increased considerably
Zeta potential (mV) (ζ-potential in PBS; pH 6.5, 0 min, mean): -25.5 mV
Zeta potential (mV) (ζ-potential in PBS; pH 6.5, 10 min, mean): -19.8 mV
Zeta potential (mV) (ζ-potential in PBS; pH 6.5, 30 min, mean): -12.4 mV
Zeta potential (mV) (ζ-potential in PBS; pH 6.5, 60 min, mean): -7.6 mV
Zeta potential (mV) (ζ-potential in PBS; pH 6.5, 90 min, mean): -6.4 mV
Zeta potential (mV) (ζ-potential in PBS; pH 6.5, 120 min, mean): -5.5 mV
Zeta potential (mV) (ζ-potential in PBS; pH 7.4, 0 min, mean): -27.3 mV
Zeta potential (mV) (ζ-potential in PBS; pH 7.4, 10 min, mean): -25.6 mV
Zeta potential (mV) (ζ-potential in PBS; pH 7.4, 30 min, mean): -24.4 mV
Zeta potential (mV) (ζ-potential in PBS; pH 7.4, 60 min, mean): -23.4 mV
Zeta potential (mV) (ζ-potential in PBS; pH 7.4, 90 min, mean): -22.6 mV
Zeta potential (mV) (ζ-potential in PBS; pH 7.4, 120 min, mean): -22.5 mV
tumor penetration, fluorescence distribution in tumor sections (EJ xenograft tumor; EJ xenograft mice, Cy-labeled, 8 mg/kg i.v.): distributed all over the tumor tissues
cytotoxicity with ferroptosis inhibitor Fer-1 (EJ cells; EJ cells, pH 6.5, 48 h, Fer-1, Supplementary Fig. 26): successfully rescued by Fer-1
mean tumor volume at 18 days post injection (EJ xenograft tumors): 552 mm^3
Tumor weight (EJ xenograft tumors; mice 1): 0.398 g
Tumor weight (EJ xenograft tumors; mice 2): 0.419 g
Tumor weight (EJ xenograft tumors; mice 3): 0.47 g
Tumor weight (EJ xenograft tumors; mice 4): 0.318 g
Tumor weight (EJ xenograft tumors; mice 5): 0.548 g
Tumor weight (EJ xenograft tumors; mice 6): 0.402 g
GSH levels of tumor tissues (EJ tumor tissues [1]; [3]): substantial reduction of GSH levels
Relative content of GSH (EJ tumor tissues [1]; mice 1): 0.248
Relative content of GSH (EJ tumor tissues [1]; mice 2): 0.322
Relative content of GSH (EJ tumor tissues [1]; mice 3): 0.359
Relative content of GSH (EJ tumor tissues [1]; mice 4): 0.285
Relative content of GSH (EJ tumor tissues [1]; mice 5): 0.331
Relative content of GSH (EJ tumor tissues [1]; mice 6): 0.276
LPO levels of tumor tissues (EJ tumor tissues [2]; [3]): elevation
Relative content of MDA (EJ tumor tissues [2]; mice 1): 4.75
Relative content of MDA (EJ tumor tissues [2]; mice 2): 4.25
Relative content of MDA (EJ tumor tissues [2]; mice 3): 4.65
Relative content of MDA (EJ tumor tissues [2]; mice 4): 5.15
Relative content of MDA (EJ tumor tissues [2]; mice 5): 4.25
Relative content of MDA (EJ tumor tissues [2]; mice 6): 4.75
Relative activity of GPX4 (GPX4; mice 1): 0.21
Relative activity of GPX4 (GPX4; mice 2): 0.22
Relative activity of GPX4 (GPX4; mice 3): 0.2
Relative activity of GPX4 (GPX4; mice 4): 0.21
Relative activity of GPX4 (GPX4; mice 5): 0.22
Relative activity of GPX4 (GPX4; mice 6): 0.2

FeTCPP-LKLKLKGACNWLPLYPCPV (disulfide) [Gi-F]
Zeta potential (mV) (ζ-potential in PBS; [4]): -8.4 mV
tumor penetration, fluorescence distribution in tumor sections (EJ xenograft tumor; mouse, in vivo, iv, 8 mg/kg): only distributed around the periphery of tumor tissues
pIC50 (EJ cells): 4.95
mean tumor volume at 18 days post injection (EJ xenograft tumors): 1426 mm^3
Tumor weight (EJ xenograft tumors; mice 1): 1.433 g
Tumor weight (EJ xenograft tumors; mice 2): 1.25 g
Tumor weight (EJ xenograft tumors; mice 3): 1.087 g
Tumor weight (EJ xenograft tumors; mice 4): 1.055 g
Tumor weight (EJ xenograft tumors; mice 5): 0.939 g
Tumor weight (EJ xenograft tumors; mice 6): 1.259 g
Relative content of GSH (EJ tumor tissues [1]; mice 1): 0.74
Relative content of GSH (EJ tumor tissues [1]; mice 2): 0.713
Relative content of GSH (EJ tumor tissues [1]; mice 3): 0.713
Relative content of GSH (EJ tumor tissues [1]; mice 4): 0.681
Relative content of GSH (EJ tumor tissues [1]; mice 5): 0.676
Relative content of GSH (EJ tumor tissues [1]; mice 6): 0.763
Relative content of MDA (EJ tumor tissues [2]; mice 1): 2.1
Relative content of MDA (EJ tumor tissues [2]; mice 2): 2.6
Relative content of MDA (EJ tumor tissues [2]; mice 3): 2.35
Relative content of MDA (EJ tumor tissues [2]; mice 4): 2.5
Relative content of MDA (EJ tumor tissues [2]; mice 5): 2.3
Relative content of MDA (EJ tumor tissues [2]; mice 6): 2.45
Relative activity of GPX4 (GPX4; mice 1): 0.57
Relative activity of GPX4 (GPX4; mice 2): 0.52
Relative activity of GPX4 (GPX4; mice 3): 0.57
Relative activity of GPX4 (GPX4; mice 4): 0.57
Relative activity of GPX4 (GPX4; mice 5): 0.52
Relative activity of GPX4 (GPX4; mice 6): 0.57

FeTCPP-LKLKLK(SA)GACNWLPLYPCPV (disulfide) [Gi-F-SA, control conjugate decorated with non-sensitive succinic anhydride (SA) moieties]
Zeta potential (mV) (ζ-potential in PBS; [4]): -21.4 mV
tumor penetration, fluorescence distribution in tumor sections (EJ xenograft tumor; mouse, in vivo, iv, 8 mg/kg): penetrate into the tumor interior, while in a week fluorescence intensity
pIC50 (EJ cells): 4.40
mean tumor volume at 18 days post injection (EJ xenograft tumors): 1204 mm^3
Tumor weight (EJ xenograft tumors; mice 1): 1.819 g
Tumor weight (EJ xenograft tumors; mice 2): 1.454 g
Tumor weight (EJ xenograft tumors; mice 3): 1.391 g
Tumor weight (EJ xenograft tumors; mice 4): 1.595 g
Tumor weight (EJ xenograft tumors; mice 5): 1.425 g
Tumor weight (EJ xenograft tumors; mice 6): 1.689 g
Relative content of GSH (EJ tumor tissues [1]; mice 1): 0.8
Relative content of GSH (EJ tumor tissues [1]; mice 2): 0.832
Relative content of GSH (EJ tumor tissues [1]; mice 3): 0.874
Relative content of GSH (EJ tumor tissues [1]; mice 4): 0.837
Relative content of GSH (EJ tumor tissues [1]; mice 5): 0.887
Relative content of GSH (EJ tumor tissues [1]; mice 6): 0.74
Relative content of MDA (EJ tumor tissues [2]; mice 1): 1.35
Relative content of MDA (EJ tumor tissues [2]; mice 2): 1.45
Relative content of MDA (EJ tumor tissues [2]; mice 3): 1.2
Relative content of MDA (EJ tumor tissues [2]; mice 4): 1.75
Relative content of MDA (EJ tumor tissues [2]; mice 5): 1.45
Relative content of MDA (EJ tumor tissues [2]; mice 6): 1.3
Relative activity of GPX4 (GPX4; mice 1): 0.79
Relative activity of GPX4 (GPX4; mice 2): 0.8
Relative activity of GPX4 (GPX4; mice 3): 0.76
Relative activity of GPX4 (GPX4; mice 4): 0.79
Relative activity of GPX4 (GPX4; mice 5): 0.8
Relative activity of GPX4 (GPX4; mice 6): 0.76
